Experiment [1] concerns the target σ1 receptor (Cavia porcellus, UniProt Q60492). Nature of the experiment: PDSP radioligand binding, σ1 receptor.
For experiment [2], the target named is human dopamine D1 receptor (Homo sapiens, UniProt P21728). Description: PDSP radioligand binding, dopamine D1 receptor. To be noted: ratio of Ki values.

SMILES strings stand for the structures.

Sequence of σ1 receptor (Q60492 whole entry): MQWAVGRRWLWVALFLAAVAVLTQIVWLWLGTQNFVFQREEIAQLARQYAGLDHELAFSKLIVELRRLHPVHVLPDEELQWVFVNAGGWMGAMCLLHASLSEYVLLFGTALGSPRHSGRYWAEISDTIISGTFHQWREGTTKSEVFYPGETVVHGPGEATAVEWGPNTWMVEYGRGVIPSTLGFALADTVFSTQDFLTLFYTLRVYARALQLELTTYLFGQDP
Sequence of human dopamine D1 receptor (P21728 whole entry): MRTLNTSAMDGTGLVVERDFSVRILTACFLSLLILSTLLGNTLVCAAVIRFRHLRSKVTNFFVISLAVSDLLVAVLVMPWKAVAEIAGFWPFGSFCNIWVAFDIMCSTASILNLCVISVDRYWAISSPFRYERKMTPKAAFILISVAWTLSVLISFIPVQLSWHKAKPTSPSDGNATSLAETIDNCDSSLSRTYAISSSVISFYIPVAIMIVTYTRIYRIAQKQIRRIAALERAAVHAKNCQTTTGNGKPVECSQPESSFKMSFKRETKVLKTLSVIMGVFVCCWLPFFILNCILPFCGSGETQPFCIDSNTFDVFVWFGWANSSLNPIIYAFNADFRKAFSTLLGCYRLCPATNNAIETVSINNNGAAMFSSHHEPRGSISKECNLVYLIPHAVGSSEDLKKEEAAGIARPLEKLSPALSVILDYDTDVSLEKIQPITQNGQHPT

Turning to `CCCCCCOc1ccc2c(c1OC)CN1CCc3cc(OC)c(O)cc3C1C2` (centres unmarked) [Compound 15, 10-(Hexyloxy)-3,9-dimethoxy-5,8,13,13a-tetrahydro-6H-isoquinolino[3,2-a]isoquinolin-2-ol], the “selectivity for σ1 versus σ2 receptors” value in experiment [1] is listed as “approximately 3 fold”. Regarding `COc1cc2c(cc1O)C1Cc3ccc(OCCCO)c(OC)c3CN1CC2` (centres unmarked) [Compound 16, 10-(3-Hydroxypropoxy)-3,9-dimethoxy-5,8,13,13a-tetrahydro-6H-isoquinolino[3,2-a]isoquinolin-2-ol], the “Selectivity D3/D1” value in experiment [2] is on record as 16.
